{"source": "patent US9828374B2", "about": "“Substituted pyrazino[2,2-a]isoquinoline derivatives” (Hoffmann-La Roche Inc., priority 2014, dated 2017)", "key": {"mouse TAAR1": {"target": "mouse TAAR1 (Mus musculus (Mouse), UniProt Q923Y8)", "sequence (Q923Y8 whole entry)": "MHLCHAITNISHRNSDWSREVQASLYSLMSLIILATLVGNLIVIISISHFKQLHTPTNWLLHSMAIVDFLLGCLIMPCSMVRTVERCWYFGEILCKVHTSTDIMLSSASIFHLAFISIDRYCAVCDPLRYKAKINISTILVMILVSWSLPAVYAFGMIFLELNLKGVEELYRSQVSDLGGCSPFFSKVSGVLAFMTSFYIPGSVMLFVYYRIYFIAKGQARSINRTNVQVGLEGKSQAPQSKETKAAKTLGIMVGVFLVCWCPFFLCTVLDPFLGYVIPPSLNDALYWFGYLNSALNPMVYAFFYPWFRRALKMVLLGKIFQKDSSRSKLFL", "assay": "Radioligand binding assay on mouse TAAR1", "conditions": "for Ki: mouse TAAR1, HEK-293 membranes, first value of the mouse/rat pair", "experimental": "(§1) Construction of TAAR Expression Plasmids and Stably Transfected Cell Lines\n(§2) For the construction of expression plasmids the coding sequences of human, rat and mouse TAAR 1 were amplified from genomic DNA essentially as described by Lindemann et al..\n(§3) The Expand High Fidelity PCR System (Roche Diagnostics) was used with 1.5 mM Mg^2+ and purified PCR products were cloned into pCR2.1-TOPO cloning vector (Invitrogen) following the instructions of the manufacturer. PCR products were subcloned into the pIRESneo2 vector (BD Clontech, Palo Alto, Calif.), and expression vectors were sequence verified before introduction in cell lines.\n(§4) HEK293 cells (ATCC # CRL-1573) were cultured essentially as described by Lindemann et al. (2005). For the generation of stably transfected cell lines HEK293 cells were transfected with the pIRESneo2 expression plasmids containing the TAAR coding sequences (described above) with Lipofectamine 2000 (Invitrogen) according to the instructions of the manufacturer, and 24 hrs post transfection the culture medium was supplemented with 1 mg/ml G418 (Sigma, Buchs, Switzerland). After a culture period of about 10 d clones were isolated, expanded and tested for responsiveness to trace amines (all compounds purchased from Sigma) with the cAMP Biotrak Enzyme immunoassay (EIA) System (Amersham) following the non-acetylation EIA procedure provided by the manufacturer.\nRadioligand Binding Assay on Mouse TAAR1\n(§5) Membrane Preparation and Radioligand Binding.\n(§6) HEK-293 cells stably expressing mouse TAAR1 were maintained at 37° C. and 5% CO2 in DMEM high glucose medium, containing fetal calf serum (10%, heat inactivated for 30 min at 56° C.), penicillin/streptomycin (1%), and 375 μg/ml geneticin (Gibco). Cells were released from culture flasks using trypsin/EDTA, harvested, washed twice with ice-cold PBS (without Ca^2+ and Mg^2+), pelleted at 1,000 rpm for 5 min at 4° C., frozen and stored at −80° C. Frozen pellets were suspended in 20 ml HEPES-NaOH (20 mM, pH 7.4) containing 10 mM EDTA and homogenized with a Polytron (PT 6000, Kinematica) at 14,000 rpm for 20 s. The homogenate was centrifuged at 48,000×g for 30 min at 4° C. Subsequently, the supernatant was removed and discarded, and the pellet resuspended in 20 ml HEPES-NaOH (20 mM, pH 7.4) containing 0.1 mM EDTA using the Polytron (20 s at 14,000 rpm). This procedure was repeated and the final pellet resuspended in HEPES-NaOH containing 0.1 mM EDTA and homogenized using the Polytron. Typically, aliquots of 2 ml membrane portions were stored at −80° C. With each new membrane batch the dissociation constant (Kd) was determined via a saturation curve. […] Nonspecific binding was defined as the amount of ^3[H]-(S)-4-[(ethyl-phenyl-amino)-methyl]-4,5-dihydro-oxazol-2-ylamine bound in the presence of 10 μM unlabeled ligand. All compounds were tested at a broad range of concentrations (10 pM to 10 μM) in duplicates. […] The 96 deep well plates were incubated for 1 hr at 4° C. Incubations were terminated by rapid filtration through Unifilter-96 plates (Packard Instrument Company) and glass filters GF/C (Perkin Elmer) presoaked for 1 hr in polyethylenimine (0.3%) and washed 3 times with 1 ml of cold binding buffer. After addition of 45 μl of Microscint 40 (PerkinElmer) the Unifilter-96 plate was sealed and after 1 hr the radioactivity counted using a TopCount Microplate Scintillation Counter (Packard Instrument Company)."}, "rat TAAR1": {"target": "rat TAAR1 (Rattus norvegicus (Rat), UniProt Q923Y9)", "sequence (Q923Y9 whole entry)": "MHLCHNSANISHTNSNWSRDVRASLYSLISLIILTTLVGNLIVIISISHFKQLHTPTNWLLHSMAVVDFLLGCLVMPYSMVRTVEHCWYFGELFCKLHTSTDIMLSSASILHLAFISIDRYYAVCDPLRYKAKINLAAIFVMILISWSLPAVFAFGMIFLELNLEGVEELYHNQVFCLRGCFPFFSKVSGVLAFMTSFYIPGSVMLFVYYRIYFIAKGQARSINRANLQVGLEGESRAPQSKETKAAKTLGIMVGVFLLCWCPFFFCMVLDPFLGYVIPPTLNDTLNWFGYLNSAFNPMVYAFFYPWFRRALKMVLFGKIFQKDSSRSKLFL", "assay": "Radioligand binding assay on rat TAAR1", "conditions": "for Ki: rat TAAR1, HEK-293 membranes, second value of the mouse/rat pair", "experimental": "as §1, §2, §3, §4\nRadioligand Binding Assay on Rat TAAR1\nas §5\nas §6, with “rat” for “mouse”, “[H]-(S)-4-[(ethyl-phenyl-amino)-methyl]-4,5-dihydro-oxazol-2-ylamine” for “^3[H]-(S)-4-[(ethyl-phenyl-amino)-methyl]-4,5-dihydro-oxazol-2-ylamine”, “[…]” for “pM”"}}, "data": [{"smiles": "FC(F)(F)c1ccnc(Nc2ccc3c(c2)CCN2CCNC[C@@H]32)n1", "note": "[Example 24, (11bR)-N-[4-(trifluoromethyl)pyrimidin-2-yl]-2,3,4,6,7,11b-hexahydro-1H-pyrazino[2,1-a]isoquinolin-9-amine]", "values": [{"measurement": "Ki", "setting": "mouse TAAR1", "result": 0.0599, "unit": "µM"}, {"measurement": "Ki", "setting": "rat TAAR1", "result": 0.0471, "unit": "µM"}]}, {"smiles": "CCc1ccc2c(c1)CCN1CCNC[C@@H]21", "note": "[Example 27, (11bR)-9-ethyl-2,3,4,6,7,11b-hexahydro-1H-pyrazino[2,1-a]isoquinoline]", "values": [{"measurement": "Ki", "setting": "mouse TAAR1", "result": 0.266, "unit": "µM"}, {"measurement": "Ki", "setting": "rat TAAR1", "result": 0.288, "unit": "µM"}]}, {"smiles": "Cc1ccc2c(c1)CCN1CCNC[C@@H]21", "note": "[Example 28, (11bR)-9-methyl-2,3,4,6,7,11b-hexahydro-1H-pyrazino[2,1-a]isoquinoline]", "values": [{"measurement": "Ki", "setting": "mouse TAAR1", "result": 0.29, "unit": "µM"}, {"measurement": "Ki", "setting": "rat TAAR1", "result": 0.421, "unit": "µM"}]}, {"smiles": "c1cc2c(cc1C1CC1)CCN1CCNC[C@@H]21", "note": "[Example 29, (11bR)-9-cyclopropyl-2,3,4,6,7,11b-hexahydro-1H-pyrazino[2,1-a]isoquinoline]", "values": [{"measurement": "Ki", "setting": "mouse TAAR1", "result": 1.81, "unit": "µM"}, {"measurement": "Ki", "setting": "rat TAAR1", "result": 0.815, "unit": "µM"}]}, {"smiles": "Fc1cccc2c1CCN1CCNC[C@@H]21", "note": "[Example 30, (11bR)-8-fluoro-2,3,4,6,7,11b-hexahydro-1H-pyrazino[2,1-a]isoquinoline]", "values": [{"measurement": "Ki", "setting": "mouse TAAR1", "result": 0.176, "unit": "µM"}, {"measurement": "Ki", "setting": "rat TAAR1", "result": 0.201, "unit": "µM"}]}, {"smiles": "Fc1c(Nc2cc(Cl)nc(C(F)(F)F)n2)ccc2c1CCN1CCNC[C@H]21", "note": "[Example 31, (11bS)-N-[6-chloro-2-(trifluoromethyl)pyrimidin-4-yl]-8-fluoro-2,3,4,6,7,11b-hexahydro-1H-pyrazino[2,1-a]isoquinolin-9-amine]", "values": [{"measurement": "Ki", "setting": "mouse TAAR1", "result": 0.835, "unit": "µM"}, {"measurement": "Ki", "setting": "rat TAAR1", "result": 1.73, "unit": "µM"}]}, {"smiles": "O=C(Nc1ccc2c(c1F)CCN1CCNC[C@@H]21)c1ccnc(C(F)(F)F)c1", "note": "[Example 32, N-[(11bR)-8-fluoro-2,3,4,6,7,11b-hexahydro-1H-pyrazino[2,1-a]isoquinolin-9-yl]-2-(trifluoromethyl)pyridine-4-carboxamide]", "values": [{"measurement": "Ki", "setting": "mouse TAAR1", "result": 0.444, "unit": "µM"}, {"measurement": "Ki", "setting": "rat TAAR1", "result": 7.63, "unit": "µM"}]}, {"smiles": "Fc1c(Nc2ncc(C3CC3)cn2)ccc2c1CCN1CCNC[C@@H]21", "note": "[Example 33, (11bR)-N-(5-cyclopropylpyrimidin-2-yl)-8-fluoro-2,3,4,6,7,11b-hexahydro-1H-pyrazino[2,1-a]isoquinolin-9-amine]", "values": [{"measurement": "Ki", "setting": "mouse TAAR1", "result": 0.0677, "unit": "µM"}, {"measurement": "Ki", "setting": "rat TAAR1", "result": 0.105, "unit": "µM"}]}, {"smiles": "O=C(Nc1ccc(C(F)(F)F)cc1)Nc1ccc2c(c1)CCN1CCNC[C@@H]21", "note": "[Example 35, (R)-1-(2,3,4,6,7,11b-hexahydro-1H-pyrazino[2,1-a]isoquinolin-9-yl)-3-(4-(trifluoromethyl)phenyl)urea]", "values": [{"measurement": "Ki", "setting": "mouse TAAR1", "result": 0.0025, "unit": "µM"}, {"measurement": "Ki", "setting": "rat TAAR1", "result": 0.0012, "unit": "µM"}]}, {"smiles": "COc1ccc(NC(=O)Nc2ccc3c(c2)CCN2CCNC[C@@H]32)cc1", "note": "[Example 36, (R)-1-(2,3,4,6,7,11b-hexahydro-1H-pyrazino[2,1-a]isoquinolin-9-yl)-3-(4-methoxyphenyl)urea]", "values": [{"measurement": "Ki", "setting": "mouse TAAR1", "result": 0.0101, "unit": "µM"}, {"measurement": "Ki", "setting": "rat TAAR1", "result": 0.023, "unit": "µM"}]}, {"smiles": "c1cc2c(cc1Nc1nc(C3CC3)no1)CCN1CCNC[C@@H]21", "note": "[Example 37, N-[(11R)-2,3,4,6,7,11-hexahydro-1H-pyrazino[2,1-a]isoquinolin-9-yl]-3-cyclopropyl-1,2,4-oxadiazol-5-amine]", "values": [{"measurement": "Ki", "setting": "mouse TAAR1", "result": 0.0347, "unit": "µM"}, {"measurement": "Ki", "setting": "rat TAAR1", "result": 0.198, "unit": "µM"}]}, {"smiles": "Cc1cc(C(=O)Nc2ccc3c(c2)CCN2CCNC[C@@H]32)nc(C(F)(F)F)n1", "note": "[Example 38, (R)-N-(2,3,4,6,7,11b-hexahydro-1H-pyrazino[2,1-a]isoquinolin-9-yl)-6-methyl-2-(trifluoromethyl)pyrimidine-4-carboxamide]", "values": [{"measurement": "Ki", "setting": "mouse TAAR1", "result": 0.222, "unit": "µM"}, {"measurement": "Ki", "setting": "rat TAAR1", "result": 0.157, "unit": "µM"}]}, {"smiles": "CC(C)c1cc(C(=O)Nc2ccc3c(c2)CCN2CCNC[C@@H]32)n(C)n1", "note": "[Example 39, (R)-N-(2,3,4,6,7,11b-hexahydro-1H-pyrazino[2,1-a]isoquinolin-9-yl)-3-isopropyl-1-methyl-1H-pyrazole-5-carboxamide]", "values": [{"measurement": "Ki", "setting": "mouse TAAR1", "result": 1.07, "unit": "µM"}, {"measurement": "Ki", "setting": "rat TAAR1", "result": 0.869, "unit": "µM"}]}, {"smiles": "Cc1nsc(Nc2ccc3c(c2)CCN2CCNC[C@@H]32)n1", "note": "[Example 40, (R)-N-(2,3,4,6,7,11b-hexahydro-1H-pyrazino[2,1-a]isoquinolin-9-yl)-3-methyl-1,2,4-thiadiazol-5-amine]", "values": [{"measurement": "Ki", "setting": "mouse TAAR1", "result": 0.202, "unit": "µM"}, {"measurement": "Ki", "setting": "rat TAAR1", "result": 0.826, "unit": "µM"}]}, {"smiles": "CCc1n[nH]c(C(=O)Nc2ccc3c(c2)CCN2CCNC[C@@H]32)c1C", "note": "[Example 41, (R)-3-ethyl-N-(2,3,4,6,7,11b-hexahydro-1H-pyrazino[2,1-a]isoquinolin-9-yl)-4-methyl-1H-pyrazole-5-carboxamide]", "values": [{"measurement": "Ki", "setting": "mouse TAAR1", "result": 0.145, "unit": "µM"}, {"measurement": "Ki", "setting": "rat TAAR1", "result": 0.288, "unit": "µM"}]}, {"smiles": "O=C(Nc1ccc(Cl)nc1)c1ccc2c(c1)CCN1CCNC[C@@H]21", "note": "[Example 42, (11bR)-N-(6-chloro-3-pyridyl)-2,3,4,6,7,11b-hexahydro-1H-pyrazino[2,1-a]isoquinoline-9-carboxamide]", "values": [{"measurement": "Ki", "setting": "mouse TAAR1", "result": 0.0395, "unit": "µM"}, {"measurement": "Ki", "setting": "rat TAAR1", "result": 0.682, "unit": "µM"}]}, {"smiles": "O=C(NCc1cccc(C(F)(F)F)c1)c1ccc2c(c1)CCN1CCNC[C@@H]21", "note": "[Example 43, (11bR)-N-[[3-(trifluoromethyl)phenyl]methyl]-2,3,4,6,7,11b-hexahydro-1H-pyrazino[2,1-a]isoquinoline-9-carboxamide]", "values": [{"measurement": "Ki", "setting": "mouse TAAR1", "result": 0.0301, "unit": "µM"}, {"measurement": "Ki", "setting": "rat TAAR1", "result": 0.137, "unit": "µM"}]}, {"smiles": "O=C(Nc1ccc(Cl)cc1)c1ccc2c(c1)CCN1CCNC[C@@H]21", "note": "[Example 44, (11bR)-N-(4-chlorophenyl)-2,3,4,6,7,11b-hexahydro-1H-pyrazino[2,1-a]isoquinoline-9-carboxamide]", "values": [{"measurement": "Ki", "setting": "mouse TAAR1", "result": 0.0161, "unit": "µM"}, {"measurement": "Ki", "setting": "rat TAAR1", "result": 0.274, "unit": "µM"}]}, {"smiles": "COc1ccc(NC(=O)c2ccc3c(c2)CCN2CCNC[C@@H]32)cn1", "note": "[Example 45, (11bR)-N-(6-methoxy-3-pyridyl)-2,3,4,6,7,11b-hexahydro-1H-pyrazino[2,1-a]isoquinoline-9-carboxamide]", "values": [{"measurement": "Ki", "setting": "mouse TAAR1", "result": 0.299, "unit": "µM"}, {"measurement": "Ki", "setting": "rat TAAR1", "result": "> 1.5", "unit": "µM"}]}, {"smiles": "O=C(Nc1cnc(Cl)nc1)c1ccc2c(c1)CCN1CCNC[C@@H]21", "note": "[Example 46, (11bR)-N-(2-chloropyrimidin-5-yl)-2,3,4,6,7,11b-hexahydro-1H-pyrazino[2,1-a]isoquinoline-9-carboxamide]", "values": [{"measurement": "Ki", "setting": "mouse TAAR1", "result": 0.309, "unit": "µM"}, {"measurement": "Ki", "setting": "rat TAAR1", "result": "> 1.5", "unit": "µM"}]}, {"smiles": "Nc1ccc2c(c1)CCN1CCNC[C@@H]21", "note": "[Example 47, (11bR)-2,3,4,6,7,11b-hexahydro-1H-pyrazino[2,1-a]isoquinolin-9-amine]", "values": [{"measurement": "Ki", "setting": "mouse TAAR1", "result": 1.1, "unit": "µM"}, {"measurement": "Ki", "setting": "rat TAAR1", "result": "> 1.5", "unit": "µM"}]}, {"smiles": "CCN(C[C@H]1COC(N)=N1)c1ccccc1", "note": "[^3[H]-(S)-4-[(ethyl-phenyl-amino)-methyl]-4,5-dihydro-oxazol-2-ylamine, reference compound]", "values": [{"measurement": "Kd", "setting": "mouse TAAR1; mouse TAAR1 membranes, saturation curve, usual value, read-out: dissociation constant (Kd) of the radioligand", "result": "~0.7", "unit": "nM"}, {"measurement": "Kd", "setting": "rat TAAR1; rat TAAR1 membranes, saturation curve, usual value, read-out: dissociation constant (Kd) of the radioligand", "result": "~2.3", "unit": "nM"}]}]}
